For six compounds, inhibition and IC50 results are on record in article PMC11903766, “A structure-based framework for selective inhibitor design and optimization” (Communications Biology, 2025).

Molecules are shown by their SMILES. Like-named read-outs stand apart in the source and are kept apart here.

The target in assay [1] is T1, PARP1 (Homo sapiens, UniProt P09874). Nature of the assay: biochemical. Also on record: PARP1 ELISA on histone-coated plates, NAD+, anti-PAR antibody with HRP, chemiluminescence. Here is the method: (§1) S53 Biological Assay Methods PARP1 inhibitory activity assay. The histone coated 384-well plates were prepared by adding 25 µL histone solution to each well and incubating overnight at 4°C. Prepared PBST buffer, blocking buffer, and assay buffer. Washed the histone coated 384-well plate 3 times using PBST buffer solution. It was blocked with 50 µL blocking buffer at room temperature for 1 h. The plate was washed 3 times using PBST buffer. 2000x compounds were prepared in the source plate, and 50nl compound were transferred from the source plate to the 96-well intermediate plate with 19.95ul assay buffer, shaken, and centrifuged at 1000rpm for 1 min. 5 µL DMSO/compound was then transferred to each well. The PARP1 and DNA mixture was incubated for 10 min at 25°C, followed by the addition of 10 µL PARP1 and DNA (except min control), incubated with the compound for 10 min at RT, and 10 μL DNA was added to the minimal control of assay plate. Added 10 µL of 2.5x NAD+ to each well and incubated for 60 min at 25°C. The plate was washed 3 times with PBST buffer and then assayed. Added 20 µL of anti-Poly/Mono-ADP Ribose Rabbit mAb. Incubated for 1.5 h at RT and washed the plate 3 times with PBST buffer. Then added, 20 µL of diluted (1:2000 in Blocking buffer) anti-rabbit IgG, HRP-linked Antibody. Incubated for 1 h at RT and washed the plate 3 times using PBST buffer. Read chemiluminescence on Envision immediately after adding 25 µL of Femto-ECL Substrate A and Femto-ECL Substrate B (1:1) mix. The IC50 values were calculated by analyzing the concentration-response curves. Fit the data to obtain inhibition values using equation (1) Equation (1): inh %=( Max-Signal)/ (Max-Min)*100 Fit the data to obtain IC50 values using equation (2) Equation (2): Y=Bottom + (Top-Bottom)/(1+(IC50/X)*HillSlope) Y is %inhibition and X is compound concentration.

The target of assay [2] is T1, PARP1. Also on record: PARP1 ELISA on histone-coated plates, NAD+, anti-PAR antibody with HRP, chemiluminescence. As to conditions: inhibitor. The procedure: as §1, with “Incubated for 1.5 h at RT and washed the plate 3 times with PBST buffer. Then added, 20 µL of diluted (1:2000 in Blocking buffer) anti-rabbit IgG, HRP-linked Antibody. Incubated for 1 h at RT and washed the plate 3 times using PBST buffer.” left out, “Fit the data to obtain inhibition values using equation (1) Equation (1): inh %=( Max-Signal)/ (Max-Min)*100 Fit the data to obtain IC50 values using equation (2) Equation (2): Y=Bottom + (Top-Bottom)/(1+(IC50/X)*HillSlope) Y is %inhibition and X is compound concentration.” left out

For assay [3], the target named is T2, PARP2 (Homo sapiens, UniProt Q9UGN5). Nature of the assay: biochemical. Also on record: PARP2 ELISA on histone-coated plates, biotin-NAD+, streptavidin-HRP, chemiluminescence. The procedure: (§2) S54 PARP2 inhibitory activity assay. The histone coated 384-well plates were prepared by adding 25 µL histone solution to each well and incubating overnight at 4°C. Prepared PBST buffer, blocking buffer, and assay buffer. Washed the histone coated 384-well plate 3 times using PBST buffer solution. It was blocked with 50 µL blocking buffer at room temperature for 1 h. The plate was washed 3 times using PBST buffer. 2000x compounds were prepared in the source plate, and 50nl compound were transferred from the source plate to the 96-well intermediate plate with 19.95ul assay buffer, shaken, and centrifuged at 1000rpm for 1 min. 5 µL DMSO/compound was then transferred to each well. The PARP2 mixture was incubated for 10 min at 25°C, followed by the addition of 10 µL PARP2 (except min control), incubated with the compound for 10 min at RT, and 10 µL assay buffer was added to the minimal control of assay plate. Added 10 µL of 2.5x Biotin-NAD+ to each well and incubated for 90 min at 25°C. The plate was washed 3 times with PBST buffer and then assayed. Added 25 µL of Stre-HRP. Incubated for 1 h at RT and washed the plate 3 times with PBST buffer. Read chemiluminescence on Envision immediately after adding 25 µL of Femto-ECL Substrate A and Femto-ECL Substrate B (1:1) mix. The IC50 values were calculated by analyzing the concentration-response curves.

The target of assay [4] is T2, PARP2. Also on record: PARP2 ELISA on histone-coated plates, biotin-NAD+, streptavidin-HRP, chemiluminescence. As to conditions: inhibitor. Here is the method:
as §2

Assay [5] deals with T1, PARP1. Nature of the assay: ELISA enzyme inhibition assay. The assay is classed as biochemical. As to conditions: read-out: PARP1 Enzyme / IC50 (nM)^b. On the technique in general: ELISA stands for enzyme-linked immunosorbent assay.
The target in assay [6] is T2, PARP2. Nature of the assay: ELISA enzyme inhibition assay. As to conditions: read-out: PARP2 Enzyme / IC50 (nM)^b. The assay is classed as biochemical.
The target of assay [7] is T1, PARP1. Description: biochemical. Also on record: PARP1 ELISA on histone-coated plates with NAD+, anti-PAR antibody, HRP chemiluminescence. Here is the method: S53 Biological Assay Methods PARP1 inhibitory activity assay. The histone coated 384-well plates were prepared by adding 25 µL histone solution to each well and incubating overnight at 4°C. Prepared PBST buffer, blocking buffer, and assay buffer. Washed the histone coated 384-well plate 3 times using PBST buffer solution. It was blocked with 50 µL blocking buffer at room temperature for 1 h. The plate was washed 3 times using PBST buffer. 2000x compounds were prepared in the source plate, and 50nl compound were transferred from the source plate to the 96-well intermediate plate with 19.95ul assay buffer, shaken, and centrifuged at 1000rpm for 1 min. 5 µL DMSO/compound was then transferred to each well. The PARP1 and DNA mixture was incubated for 10 min at 25°C, followed by the addition of 10 µL PARP1 and DNA (except min control), incubated with the compound for 10 min at RT, and 10 μL DNA was added to the minimal control of assay plate. Added 10 µL of 2.5x NAD+ to each well and incubated for 60 min at 25°C. The plate was washed 3 times with PBST buffer and then assayed. Added 20 µL of anti-Poly/Mono-ADP Ribose Rabbit mAb. […] Read chemiluminescence on Envision immediately after adding 25 µL of Femto-ECL Substrate A and Femto-ECL Substrate B (1:1) mix. The IC50 values were calculated by analyzing the concentration-response curves. […]

The target of assay [8] is T2, PARP2. Nature of the assay: biochemical. Also on record: PARP2 ELISA on histone-coated plates with biotin-NAD+, streptavidin-HRP chemiluminescence. Here is the method: as §2

T2 sequence (Q9UGN5 whole entry): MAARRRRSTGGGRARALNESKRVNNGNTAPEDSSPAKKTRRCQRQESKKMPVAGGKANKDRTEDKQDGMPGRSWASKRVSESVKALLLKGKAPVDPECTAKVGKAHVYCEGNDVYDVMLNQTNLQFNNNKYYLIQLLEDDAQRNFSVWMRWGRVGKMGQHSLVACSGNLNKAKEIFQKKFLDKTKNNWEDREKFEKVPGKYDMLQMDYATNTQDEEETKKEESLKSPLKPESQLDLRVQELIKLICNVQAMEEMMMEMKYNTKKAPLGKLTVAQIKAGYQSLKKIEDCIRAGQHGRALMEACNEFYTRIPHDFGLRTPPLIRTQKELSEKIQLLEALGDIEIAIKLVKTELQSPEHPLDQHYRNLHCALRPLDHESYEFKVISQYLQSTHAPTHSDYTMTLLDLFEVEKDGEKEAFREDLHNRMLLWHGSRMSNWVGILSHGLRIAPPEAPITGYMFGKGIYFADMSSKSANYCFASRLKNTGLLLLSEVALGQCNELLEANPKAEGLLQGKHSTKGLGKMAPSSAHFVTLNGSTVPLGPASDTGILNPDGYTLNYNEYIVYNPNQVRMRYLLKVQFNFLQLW
T1 sequence (P09874 2-1014): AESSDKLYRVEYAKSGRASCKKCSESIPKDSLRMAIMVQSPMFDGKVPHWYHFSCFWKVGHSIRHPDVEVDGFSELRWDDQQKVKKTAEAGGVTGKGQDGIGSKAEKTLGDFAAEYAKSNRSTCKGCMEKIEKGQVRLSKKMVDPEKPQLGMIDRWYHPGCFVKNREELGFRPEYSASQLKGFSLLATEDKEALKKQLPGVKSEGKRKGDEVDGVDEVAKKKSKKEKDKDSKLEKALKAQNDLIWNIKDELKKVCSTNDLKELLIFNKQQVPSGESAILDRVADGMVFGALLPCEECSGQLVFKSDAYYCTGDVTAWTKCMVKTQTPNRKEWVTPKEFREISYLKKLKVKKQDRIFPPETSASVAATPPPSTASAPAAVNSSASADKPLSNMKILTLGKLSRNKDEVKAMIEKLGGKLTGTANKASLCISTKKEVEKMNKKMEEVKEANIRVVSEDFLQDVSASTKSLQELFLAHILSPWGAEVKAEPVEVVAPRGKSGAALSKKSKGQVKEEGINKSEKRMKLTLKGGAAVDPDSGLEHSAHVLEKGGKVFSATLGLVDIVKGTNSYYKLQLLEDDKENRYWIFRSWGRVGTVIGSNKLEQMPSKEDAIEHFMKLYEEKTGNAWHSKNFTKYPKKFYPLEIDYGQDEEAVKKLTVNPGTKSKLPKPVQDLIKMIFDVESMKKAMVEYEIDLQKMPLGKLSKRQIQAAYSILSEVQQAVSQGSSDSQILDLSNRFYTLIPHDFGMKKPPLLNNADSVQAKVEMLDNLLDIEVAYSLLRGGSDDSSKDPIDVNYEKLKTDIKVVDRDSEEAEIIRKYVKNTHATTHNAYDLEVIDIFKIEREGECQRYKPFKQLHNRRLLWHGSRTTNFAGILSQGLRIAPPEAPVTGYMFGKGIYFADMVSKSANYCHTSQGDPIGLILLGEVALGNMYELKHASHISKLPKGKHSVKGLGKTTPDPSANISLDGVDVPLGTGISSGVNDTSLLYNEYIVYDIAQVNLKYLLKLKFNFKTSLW

In the case of `O=C(c1ccc(C(F)(F)F)c(=O)[nH]1)N1CCN(c2ccc3cc[nH]c3c2)CC1` [Z5], the inhibition at 0.01 µM against PARP1 [1] was 7.3%; on PARP2 [3], -0.8%. The inhibition at 10 µM on PARP1 [1] was found to be 12.7%. Moreover, the IC50 on PARP1 [2] and on PARP2 [4] was greater than 10000 nM in each case.

For `CNC(=O)c1ccc(N2CCN(Cc3ccc4c(c3)[nH]c3ncccc34)CC2)cn1` [Y5], the results for the IC50 on PARP1 [5] and on PARP2 [4] were 12.7 nM and greater than 10000 nM, respectively. For the same compound, the inhibition at 0.01 µM against PARP1 [1] was found to be 46%; against PARP2 [3], 1.4%. Further, at PARP1 [1], the inhibition at 10 µM came out at 98.8%.

`CNC(=O)c1ccc(N2CCN(CC#Cc3cccc4cn[nH]c34)CC2)cn1` [Y2]: the values for the inhibition at 0.01 µM at PARP1 [1] and against PARP2 [3] were -0.1% and 2.3%, respectively. For the same compound, the inhibition at 10 µM on PARP1 [1] worked out at 47.4%. The IC50 is 9800 nM against PARP1 [2] and greater than 10000 nM on PARP2 [4].

With `CCNC(=O)Nc1cc(CN2CCN(c3ccc(C(=O)NC)nc3)CC2)c2ccccc2n1` [Y6], the IC50 on PARP1 [5] was 6 nM; on PARP2 [6], 2.4 nM. Besides, the values for the inhibition at 0.01 µM at PARP1 [1] and against PARP2 [3] were 70.5% and 87.6%, respectively. Also, at PARP1 [1], the inhibition at 10 µM was 99.1%.

In the case of `CNC(=O)c1ccc(N2CCN(Cc3ccnc(-c4c[nH]c(=O)c(C)c4)n3)CC2)cn1` [R1], the IC50 at PARP1 [7] came to 3370 nM; on PARP2 [8], 255 nM.

Consider `CCn1c(=O)[nH]c2sc(CN3CCN(c4ccc(C(=O)NC)nc4)CC3)c(C)c2c1=O` [Y4], for which the figures for the IC50 on PARP1 [5] and on PARP2 [6] were 86.5 nM and 741 nM, respectively. For the same compound, the inhibition at 0.01 µM was 20.7% against PARP1 [1] and -1.6% on PARP2 [3]. Further, the inhibition at 10 µM against PARP1 [1] is 99%.

As a reminder, the inhibition is the relative decrease from the control value, in per cent.
